Source: PMC12040169 (PLOS Biology, 2025)

Assay: in vitro
Conditions: human, hela cells, % viability

| SMILES | viability at 28.5 h, 10 µM |
| --- | --- |
| O=C1COc2ccccc2C/C=C/CC2(CCN(CC3CCOCC3)CC2)CN1 [CBK292128] | 104% |
| N#Cc1c(NC(=O)CSc2nc3ccccc3s2)oc(-c2ccccc2)c1-c1ccccc1 [CBK269019] | 97% |
| CCn1cc(CN2CCC(c3cc(Cc4cccc(OC)c4)cc(C)n3)CC2)c(C)n1 [CBK285671] | 89.2% |
| O=C(CN1C(=O)COc2ccccc21)NC1CC1 [CBK270261] | 96% |
| O=C(CSc1nc(O)cc(O)n1)Nc1ccc(I)cc1 [CBK269467] | 103% |
| CCOc1ccc2[nH]c(C(=O)NC3CCCOC3)cc2c1 (centres unmarked) [CBK283114] | 101% |
| O=C(O)c1ccc(OCCN2C3=NCCN3c3ccccc32)cc1 [CBK286629] | 93% |
| CCCCOc1ccc2c(C(F)(F)F)cc(=O)oc2c1 [CBK097821] | 104% |
| COc1ccc(N2C(N)=C(C#N)C(c3cccc(OC(C)C)c3)C3=C2CCS3(=O)=O)cc1 (centres unmarked) [CBK293992] | 85.6% |
| Cc1ccc(S(=O)(=O)Cc2ccc(C(=O)N3CCN(Cc4ccccc4)CC3)cc2)cc1 [CBK269588] | 86.1% |
| COc1ccc2[nH]cc(CCNC(=O)c3cc(-c4cccc(NC(C)=O)c4)cnc3N(C)S(C)(=O)=O)c2c1 [CBK076599] | 101% |
| COCCN(CCOC)C(=O)COc1c(Cl)cc(C(=O)O)cc1Cl [CBK296704] | 92.3% |
| O=C(Cc1ccccc1)Nc1nnc(Cc2ccc3c(c2)OCCO3)o1 [CBK287661] | 94.2% |
| Cc1nc2n(n1)C1=CC(C)(C)CC(=O)C1=NN2 [CBK019050] | 89.2% |
| CC1CN(S(=O)(=O)N2CCOCC2)CCN1S(=O)(=O)N1CCOCC1 (centres unmarked) [CBK269011] | 101% |
| CC(C)C(=O)NCCn1nc(-c2ccco2)ccc1=O [CBK283863] | 97% |
| Nc1cccc(-c2nc(-c3cccs3)cnc2N)c1 [CBK063923] | 94.5% |
| C[C@@H](c1ccccc1)N1C(=O)[C@@H]2CN(C(=O)COCC(=O)O)CCN2C1=O [CBK289636] | 94.3% |
| COc1ccc(CN2CCCN(c3nccc(OCc4cc(C)on4)n3)CC2)cc1 [CBK083911] | 100% |
| O=C(c1cncnc1)N1CC[C@H](c2nc3cc(F)ccc3[nH]2)C1 [CBK289376] | 96.8% |
| CCCN1C(=O)N(CO)C2C1N(CO)C(=O)N2CCC (centres unmarked) [CBK263882] | 101% |
| CC(C)c1ccc(N2C(=O)SC(c3ccccc3)C2=O)cc1 (centres unmarked) [CBK113687] | 91.1% |

| SMILES | viability at 28.5 h, 10 µM |
| --- | --- |
| COc1ccc2ccccc2c1CN1CCN(C/C=C/c2ccccc2)CC1 [CBK261899] | 108% |
| CCN(CC)c1ccc(NC(=O)c2cccc(OC)c2OC)c(C)c1 [CBK097801] | 92.2% |
| O=C1CCCN1CCCNC(=O)N1CCN(CCc2ccccc2)CC1 [CBK158932] | 91% |
| Cc1cc(Cl)c(S(=O)(=O)Nc2ccc(I)cc2)cc1OCC(N)=O [CBK266418] | 105% |
| Cc1cccc(Cl)c1S(=O)(=O)c1ccc2ccnc(N3CCNCC3)c2c1 [CBK036394C] | 78.9% |
| Cc1c(Cl)cccc1S(=O)(=O)Nc1nc(C(C)Sc2nccn2C)ns1 (centres unmarked) [CBK200052] | 88.5% |
| CC1CN(Cc2nc3c(c(=O)[nH]c(=O)n3C)n2Cc2cccc(Cl)c2)CC(C)O1 (centres unmarked) [CBK269450] | 105% |
| O=C(CCOc1ccc(F)cc1)Nc1cnc(-c2ccc(F)cc2)c(-c2ccoc2)n1 [CBK037166] | 91.9% |
| CN(C)CCN(Cc1ccccc1)Cc1ccc(C(F)(F)F)cc1 [CBK261927] | 120% |
| NC(=O)c1c(NC(=O)C2CC(=O)OC23CCCCC3)sc2c1CCCCC2 (centres unmarked) [CBK264189] | 102% |
| CCn1cc(CN2CCN(C(=O)c3csc(C(C)C)c3)CC2)cn1 [CBK282044] | 88.1% |
| COc1ccc(OC)c(-c2nc(Nc3ccc(Cl)cc3Cl)sc2CC(=O)O)c1 [CBK264175] | 103% |
| Cc1ccc(S(=O)(=O)c2cccc(S(=O)(=O)N3CCOCC3)c2)cc1S(=O)(=O)N1CCOCC1 [CBK262117] | 109% |
| COc1ccc(NC(=O)c2cnc(-c3ccc(Cl)cc3)c(-c3ccc(C(C)=O)s3)c2)cn1 [CBK036643] | 92.2% |
| CC(C)(C)OC(=O)N1CCN(CCCOC2(C)SC(NC3CC4CCC3C4)=NC2=O)CC1 (centres unmarked) [CBK115612] | 95.9% |
| Cc1c(C(=O)Nc2ccc(OCc3ccccc3F)cc2)sc2nc[nH]c(=O)c12 [CBK285834] | 98.5% |
| Cc1ccc(S(=O)(=O)N2CCN(c3ccc([N+](=O)[O-])c(NCCN4CCOCC4)c3)CC2)cc1 [CBK265432] | 102% |
| CN(C)S(=O)(=O)c1ccc(NC(=O)CCC(=O)O)cc1 [CBK267156] | 91.6% |
| CCOCCCNC(=O)C1CCN(c2cccc(F)c2C#N)CC1 [CBK306341] | 91.9% |
| Cc1nc2c(c(=O)[nH]1)CCN(C(=O)c1cc(C3CC3)oc1C)C2 [CBK283753] | 92.5% |
| Cc1ccc(S(=O)(=O)NC(=O)N(Cc2ccccc2)Cc2ccco2)cc1 [CBK269524] | 93% |
| O=C(N/N=C\c1cccc2ccccc12)c1ccc(CO)nc1 [CBK261377] | 104% |

| SMILES | viability at 28.5 h, 10 µM |
| --- | --- |
| Cc1csc2c(C3CCCN(C(=O)c4ccnn4C)C3)nc(C)n12 (centres unmarked) [CBK285215] | 96.9% |
| O=C(NCC1CCCO1)c1cc(S(=O)(=O)N2CCOCC2)c(Cl)cc1Cl (centres unmarked) [CBK269691] | 90.3% |
| Cc1nn(C)c2ncc(S(=O)(=O)NC(C)c3cccc(F)c3)cc12 (centres unmarked) [CBK305948] | 94.9% |
| Cc1ccc(S(=O)(=O)Nc2nc3ccccc3nc2Nc2ccc(C(=O)O)cc2)cc1C [CBK300516] | 91.5% |
| COc1ccc(CC(=O)N2CCC(Cc3cccc(-c4cccs4)c3)(C(N)=O)CC2)cc1 [CBK285744] | 93.2% |
| Cc1cc(O)nc(C(C)N2CCCN(CC(F)(F)F)CC2)n1 (centres unmarked) [CBK305491] | 88.6% |
| Cc1ccc(CN2CC[C@H]3NC(=O)c4ccccc4OCC/C=C/C[C@H]3C2)cn1 [CBK292056] | 98.6% |
| COc1ccc(C(c2ccccc2C)N(C)C(=O)C2CCN(C(C)=O)CC2)cn1 (centres unmarked) [CBK060490] | 90.8% |
| Cc1c(C(C)NCC(O)COc2ccc(C#N)cc2)cnn1C (centres unmarked) [CBK304881] | 97.5% |
| COc1cncc(C(NC(=O)c2ccc3c(c2)CCC3)[C@H]2C[C@H](O)C2)c1 (some centres unmarked) [CBK307646] | 105% |
| O=C(O)CCc1ccc(-c2ccc(Nc3cccnc3)nc2)cc1 [CBK037768] | 106% |
| CC(C)[C@@H](CO)Nc1cncc(-c2ccc3ccccc3c2)n1 [CBK065546] | 100% |
| COc1cccc(CCC(=O)Nc2cnc(-c3cccc(C(F)(F)F)c3)c(-c3cccnc3)n2)c1 [CBK036835] | 90% |
| COc1ccc(S(=O)(=O)N(CC(=O)O)c2ccc(Cl)cc2)cc1OC [CBK267836] | 97.5% |
| COc1ccc(Cn2c(=O)n(C(=O)c3cccc(S(C)(=O)=O)c3)c3ccccc32)cc1 [CBK106547] | 86.5% |
| O=C(NCC1CCCO1)c1ccc2c(c1)C(=O)N(c1ccccc1-c1ccccc1)C2=O (centres unmarked) [CBK262777] | 86% |
| Cc1cccc(Cl)c1OCC(O)CNCCc1ccccc1 (centres unmarked) [CBK003076] | 102% |
| Cc1cc(C)c2c(N)c(C(=O)Nc3ccc(C(=O)O)cc3)sc2n1 [CBK300515] | 100% |
| O=C(CN1C(=O)N2CCN=C2c2ccccc21)N1CCCCC1 [CBK283865] | 91.1% |
| O=C(Nc1nc2c(s1)CCc1ccccc1-2)C1CC1 [CBK287330] | 85.3% |
| O=C(NC[C@H]1CC[C@H](c2cc(C(=O)N3CCOCC3)c3ccccc3n2)CC1)C1CCCC1 [CBK285979] | 89.9% |
| CCN(CC)CCN(C)Cc1ccccc1Br [CBK026593] | 92.8% |

| SMILES | viability at 28.5 h, 10 µM |
| --- | --- |
| O=S(=O)(Nc1nnn[nH]1)c1cccc(C(F)(F)F)c1 [CBK062377] | 108% |
| COc1cccc2ncn(CCCn3cccn3)c(=O)c12 [CBK307094] | 89.7% |
| Cc1c(C(=O)C2=C(O)C(=O)N(CCCN(C)C)C2c2ccccn2)cnn1-c1ccccc1 (centres unmarked) [CBK266516] | 100% |
| CN(C)CCCN(Cc1cnn(-c2ccccc2)c1)Cc1ccco1 [CBK283040] | 110% |
| CC(=O)Nc1ccc(-c2cccc(COC3CCN(C(=O)Cc4ccc(Cl)c(Cl)c4)CC3)c2)cc1 [CBK149487] | 109% |
| COc1cccc(CNc2nccnc2-c2ccccc2F)c1OC [CBK037993] | 98.1% |
| CN1CCN(C(=S)SCC(=O)O)CC1 [CBK261549C] | 92.8% |
| Oc1nsnc1-c1ccccc1 [CBK026014] | 95% |
| COc1cc(OC)cc(C(=O)N[C@@H]2CC[C@@]3(c4ccc(OC)c(OC)c4)CCN(C)[C@H]3C2)c1 [CBK074242T] | 115% |
| Cn1nc(-c2cccs2)cc1[C@H]1CN2CC[C@H]1C[C@@H]2CNS(C)(=O)=O [CBK289102] | 93.5% |
| Nc1ccc(-c2cn3ccnc3c(NCc3cccs3)n2)cc1 [CBK066564] | 95.5% |
| CN(C)CC(Oc1ccccc1)C(=O)c1ccccc1 (centres unmarked) [CBK011935C] | 101% |
| CSCCCNC(=O)N1CCN(C2CCN(C)CC2)CC1 [CBK155882] | 101% |
| CC(=O)Nc1ccc(S(=O)(=O)/N=C(/Nc2nc(C)cc(C)n2)Nc2ccccc2C)cc1 [CBK264101] | 95.9% |
| COc1ccc(CCCC(=O)Nc2cc(N3CCNCC3)nc(SC)n2)cc1OC [CBK050261T] | 101% |
| COC(=O)c1cc(Br)c(NC(=O)c2cccs2)cc1OC [CBK066842] | 86.6% |
| Cc1ccc(C(=O)NNC(=O)c2ccc([N+](=O)[O-])cc2)cc1 [CBK261793] | 89.5% |
| Cc1cc2cn([C@@H]3O[C@H](CO)[C@H](O)C3O)c(=O)nc2[nH]1 (some centres unmarked) [CBK201219] | 98% |
| O=C(Nc1ccc(S(=O)(=O)Nc2nccs2)cc1)c1cc(-c2cccnc2)nc2ccc(Cl)cc12 [CBK267721] | 105% |
| CC(C)n1ccc2cc(C(=O)NC3CCOC(C)(C)C3)ccc21 (centres unmarked) [CBK304366] | 90.6% |
